Test results published in patent EP2552195B1, “ANTIMICROBIAL OIL-IN-WATER EMULSION” (B. Braun Melsungen AG, priority 2010, dated 2011).

Legend:
Type in all cases: cell-based
Prüfmikroorganismen = test: Inactivator test, overall statement for all four test organisms; settings: concentration range 0,02 - 0,05 Gew.-% in o/w emulsion
Source text: (§1) Um die Wirksamkeit der antimikrobiellen Wirkstoffe in einem bestimmten Konzentrationsbereich in einer Öl in Wasser Emulsion zu testen wurde ein Inaktivatortest nach prEN13727 (2008) und prEN13624 (2010) gegenüber Enterococcus hirae (ATCC 10541), Escherichia coli (ATCC 11229), Pseudomonas aeruginosa (ATCC 15442) und Staphylococcus aureus (ATCC 6538) für n = 4 durchgeführt. Die Messergebnisse sind in Tabelle 8 wiedergegeben. Tabelle 8

[1] = system: Staphylococcus aureus (ATCC 6538); test: Inactivator test per prEN13727 (2008) and prEN13624 (2010); settings: n = 4
Source text: (§2) Es wurden Öl in Wasser Emulsionen hergestellt, die unterschiedliche Mengen X des antimikrobiellen Wirkstoffs Polyhexamethylenbiguanidiniumhydrochlorid (PHMB) [erfindungsgemäß] und Chlorhexidin (CHX) [Vergleich] aufweisen. Die Öl in Wasser Emulsionen sind in Tabelle 7 wiedergegeben. Tabelle 7
as §1

[2] = system: Pseudomonas aeruginosa (ATCC 15442); test: as above; settings: n = 4
Source text: as §2, §1

[3] = system: Enterococcus hirae (ATCC 10541); test: as above; settings: n = 4
Source text: as §2, §1

[4] = system: Escherichia coli (ATCC 11229); test: as above; settings: n = 4
Source text: as §2, §1

[5] = 0,02% active in o/w emulsion (Tabelle 7)
[6] = 0,03% active in o/w emulsion (Tabelle 7)
[7] = 0,04% active in o/w emulsion (Tabelle 7)
[8] = 0,05% active in o/w emulsion (Tabelle 7)

N=C(NCCCCCCNC(=N)NC(=N)Nc1ccc(Cl)cc1)NC(=N)Nc1ccc(Cl)cc1 [CHX, Chlorhexidin]
mikrobiozide Wirkung in der Öl in Wasser Emulsion (Prüfmikroorganismen): inaktiviert vollständig | Kolonien-bildende Einheiten S. aureus [1, 5]: 149 ± 5 | Kolonien-bildende Einheiten S. aureus [1, 6]: 156 ± 13 | Kolonien-bildende Einheiten S. aureus [1, 7]: 160 ± 8 | Kolonien-bildende Einheiten S. aureus [1, 8]: 159 ± 10 | Kolonien-bildende Einheiten P. aeruginosa [2, 5]: 316 ± 50 | Kolonien-bildende Einheiten P. aeruginosa [2, 6]: 315 ± 43 | Kolonien-bildende Einheiten P. aeruginosa [2, 7]: 355 ± 10 | Kolonien-bildende Einheiten P. aeruginosa [2, 8]: 339 ± 37 | Kolonien-bildende Einheiten E. hirae [3, 5]: 104 ± 4 | Kolonien-bildende Einheiten E. hirae [3, 6]: 102 ± 5 | Kolonien-bildende Einheiten E. hirae [3, 7]: 106 ± 3 | Kolonien-bildende Einheiten E. hirae [3, 8]: 106 ± 3 | Kolonien-bildende Einheiten E. coli [4, 5]: 132 ± 1 | Kolonien-bildende Einheiten E. coli [4, 6]: 131 ± 5 | Kolonien-bildende Einheiten E. coli [4, 7]: 130 ± 9 | Kolonien-bildende Einheiten E. coli [4, 8]: 130 ± 9
